Measured values as given in PubChem BioAssay (NCI).
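Each compound was tested at five concentrations against cells in 96-well plates for 48 hours. Abbreviation: GI50, concentration required for 50% inhibition of growth. TGI: total growth inhibition.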

Experiments:
Experiment in all cases: DTP human tumour cell line panel, 48 h
SNB-75 CNS = system: SNB-75 CNS
CAKI-1 renal = system: CAKI-1 renal
K-562 leukemia = system: K-562 leukemia
SNB-19 CNS = system: SNB-19 CNS
CCRF-CEM leukemia = system: CCRF-CEM leukemia
NCI-H23 lung = system: NCI-H23 lung
OVCAR-4 ovarian = system: OVCAR-4 ovarian
OVCAR-5 ovarian = system: OVCAR-5 ovarian
MCF7 breast = system: MCF7 breast
MDA-MB-231 breast = system: MDA-MB-231 breast

| SMILES | TGI (SNB-75 CNS) | TGI (CAKI-1 renal) | TGI (K-562 leukemia) | TGI (SNB-19 CNS) | TGI (CCRF-CEM leukemia) | TGI (NCI-H23 lung) | TGI (OVCAR-4 ovarian) | TGI (OVCAR-5 ovarian) | GI50 (SNB-75 CNS) | GI50 (NCI-H23 lung) | GI50 (CAKI-1 renal) | GI50 (K-562 leukemia) | GI50 (OVCAR-4 ovarian) | GI50 (SNB-19 CNS) | GI50 (OVCAR-5 ovarian) | GI50 (MCF7 breast) | TGI (MCF7 breast) | GI50 (MDA-MB-231 breast) | TGI (MDA-MB-231 breast) | GI50 (CCRF-CEM leukemia) |
| --- | --- | --- | --- | --- | --- | --- | --- | --- | --- | --- | --- | --- | --- | --- | --- | --- | --- | --- | --- | --- |
| CN(C(=O)C12C3C4C1C1C2C3C41C(=O)N(C)C(C)(C)C)C(C)(C)C (stereo not drawn) | > 50 µM | > 50 µM | > 50 µM | > 50 µM | > 50 µM | – | – | – | – | – | – | – | – | – | – | – | – | – | – | – |
| CC1(C)C(=O)CCC(=O)C(C)(C)C2=CC=C(O2)C(C)(C)C(=O)CCC(=O)C(C)(C)C2=CC=C1O2 | – | > 100 µM | > 100 µM | > 100 µM | > 100 µM | > 100 µM | > 100 µM | > 100 µM | – | – | – | – | – | – | – | – | – | – | – | – |
| CC(=O)Nc1cc(C(c2ccccc2)c2ccccc2)cc(C(c2ccccc2)c2ccccc2)c1C | > 100 µM | > 100 µM | > 100 µM | > 100 µM | – | > 100 µM | > 100 µM | > 100 µM | 21.4 µM | 6.22 µM | > 100 µM | 2.83 µM | 21.7 µM | > 100 µM | > 100 µM | 4.77 µM | > 100 µM | 4.21 µM | > 100 µM | – |
| CC(C)(C)C1CCP(=O)(c2ccccc2)CC1 (stereo not drawn) | > 100 µM | – | > 100 µM | > 100 µM | > 100 µM | > 100 µM | > 100 µM | > 100 µM | – | – | – | – | – | – | – | – | – | – | – | – |
| Cc1cc(C(=O)N2CCN(C)CC2)c2c(=O)n(-c3ccccc3)c(=O)n(CC(O)CN3CCN(c4ncccn4)CC3)c2n1 (stereo not drawn) | > 100 µM | > 100 µM | > 100 µM | > 100 µM | – | > 100 µM | > 100 µM | > 100 µM | > 100 µM | > 100 µM | > 100 µM | > 100 µM | > 100 µM | > 100 µM | > 100 µM | > 100 µM | > 100 µM | > 100 µM | > 100 µM | – |
| c1cc2ccc3cc2cc1CNCCOCCNCc1ccc2ccc(cc2c1)CNCCOCCNC3 | – | > 100 µM | > 100 µM | > 100 µM | – | > 100 µM | > 100 µM | > 100 µM | – | > 100 µM | > 100 µM | > 100 µM | > 100 µM | > 100 µM | > 100 µM | > 100 µM | > 100 µM | > 100 µM | > 100 µM | – |
| COc1cc(-c2ccccc2)c(OC)cc1CCl | > 100 µM | > 100 µM | > 100 µM | > 100 µM | > 100 µM | > 100 µM | > 100 µM | > 100 µM | – | – | – | – | – | – | – | – | – | – | – | – |
| COc1cc(C2CC(=O)c3c(C)nn(-c4nc5ccccc5[nH]4)c3C2)cc(OC)c1OC (stereo not drawn) | 3.46 µM | > 100 µM | – | – | > 100 µM | > 100 µM | – | > 100 µM | 1.72 µM | > 100 µM | > 100 µM | – | – | – | > 100 µM | > 100 µM | > 100 µM | – | – | > 100 µM |
| CCOC(=O)C/C(N)=C(\C#N)C(=O)OCC | > 100 µM | > 100 µM | > 100 µM | > 100 µM | > 100 µM | > 100 µM | – | > 100 µM | – | – | – | – | – | – | – | – | – | – | – | – |
| NC(=O)c1ccccc1NC(=O)C(=O)Nc1n[nH]c(N)n1 | > 100 µM | > 100 µM | > 100 µM | > 100 µM | > 100 µM | > 100 µM | > 100 µM | > 100 µM | – | – | – | – | – | – | – | – | – | – | – | – |
| O=C(O)/C(=C/c1ccccc1[N+](=O)[O-])c1cccs1 | > 100 µM | > 100 µM | > 100 µM | > 100 µM | – | > 100 µM | > 100 µM | > 100 µM | – | – | – | – | – | – | – | – | – | – | – | – |
| O=C(Cc1nc2ccc(C(=O)c3ccccc3)cc2[nH]c1=O)C(=O)Nc1ccc(C(F)(F)F)cc1[N+](=O)[O-] | > 100 µM | > 100 µM | > 100 µM | > 100 µM | 91.8 µM | > 100 µM | > 100 µM | > 100 µM | – | – | – | – | – | – | – | – | – | – | – | – |
| Cc1nn2c(=O)n(-c3cccc(-n4nnc5c(-c6ccccc6)c(C)nn5c4=O)c3C)nnc2c1-c1ccccc1 | > 100 µM | > 100 µM | > 100 µM | > 100 µM | > 100 µM | > 100 µM | 53.7 µM | > 100 µM | – | – | – | – | – | – | – | – | – | – | – | – |
| CCOC(=O)C1=C(C)NC(C)=C(C(=O)OCC)C1c1cc(Br)c(O)c(OC)c1 | 7.14 µM | 30.8 µM | – | 16.8 µM | 15.7 µM | 22.4 µM | 37 µM | 15.9 µM | 1.85 µM | 4.81 µM | 4.79 µM | – | 5.97 µM | 4.25 µM | 4.32 µM | 4.41 µM | 23.9 µM | 6.15 µM | 20.4 µM | 3.37 µM |
| Cc1cn(C2CC(N=[N+]=[N-])C(CO)O2)c(=O)[nH]c1=O (stereo not drawn) | – | > 1000 µM | > 1000 µM | – | > 1000 µM | > 1000 µM | > 1000 µM | > 1000 µM | – | > 1000 µM | 479 µM | – | > 1000 µM | – | > 1000 µM | 50.1 µM | > 1000 µM | > 1000 µM | > 1000 µM | – |
| Cc1no[n+]([O-])c1/C=N/NS(=O)(=O)c1ccccc1 | – | > 100 µM | > 100 µM | > 100 µM | – | > 100 µM | > 100 µM | > 100 µM | – | – | – | – | – | – | – | – | – | – | – | – |
| Cc1ccc(-n2nnc3c(sc4ccccc43)c2=O)cc1 | 16.3 µM | > 100 µM | > 100 µM | > 100 µM | – | > 100 µM | 4.82 µM | > 100 µM | 3.08 µM | 42.8 µM | 3.8 µM | > 100 µM | 2.02 µM | 6.22 µM | > 100 µM | 43.7 µM | > 100 µM | 4.04 µM | > 100 µM | – |
| CC(=O)n1cc(CC(C)O)c(=O)[nH]c1=O (stereo not drawn) | > 100 µM | > 100 µM | > 100 µM | > 100 µM | – | > 100 µM | > 100 µM | > 100 µM | – | – | – | – | – | – | – | – | – | – | – | – |
| O=C(O)c1ccccc1-c1ccccc1C(=O)Nc1ccc2c(c1)Cc1ccccc1-2 | > 100 µM | > 100 µM | – | > 100 µM | – | 36.6 µM | > 100 µM | 49.2 µM | – | – | – | – | – | – | – | – | > 100 µM | – | > 100 µM | – |
| COc1ccccc1NC(=O)CC(=O)n1nc(-c2ccccc2)c(N=Nc2ccccc2[N+](=O)[O-])c1-c1ccccc1 | > 100 µM | > 100 µM | > 100 µM | > 100 µM | > 100 µM | > 100 µM | > 100 µM | > 100 µM | – | – | – | – | – | – | – | – | – | – | – | – |
